Where two headings read alike, the source gives them in different places.
Columns and labels:
[1] = system: IFNγ-induced NO production in RAW 264.7 cells; experiment: Nitric Oxide Suppression Assay (IFNγ-induced NO, Griess nitrite readout); format: cell-based, mouse; conditions: for IC50: Mus musculus; for Avg NO IC50 Relative to RTA402 (fold): Table 2, ratio to RTA402
Procedure: Tissue Culture: RAW 264.7, a mouse macrophage cell line, was obtained from American Type Culture Collection (Manassas VA) and maintained in the log phase of growth in Roswell Park Memorial Institute Medium 1640 (RPMI 1640) supplemented with 10% heat inactivated fetal bovine serum and 1% penicillin-streptomycin. Cells were cultured and maintained in a humidified incubator at 37° C. under 5% C02. Cells were sub-cultured every 2-4 days. All cell culture supplies were obtained from Life Technologies (Grand Island, NY) and VWR (Radnor, PA).
Nitric Oxide Suppression Assay. RAW 264.7 cells were plated 1 day in advance of experimental treatments at a concentration of 30,000 cells per well onto Falcon-96 well clear bottom plates (Corning, NY) in a total volume of 200 μL per well using RPMI 1640 supplemented with 0.5% fetal bovine serum and 1% penicillin-streptomycin. The next day, cells were pretreated with compounds serially diluted from 1000×stocks. All compounds were dissolved in dimethyl sulfoxide (DMSO) usually at 10 mM stock solutions. Compounds were subsequently diluted in DMSO and RPMI 1640. Each well received a final concentration of 0.1% DMSO. Cells were pretreated for 2 hours and incubation at 37° C., followed by treatment with 20 ng/mL of interferon gamma (R&D Systems, Minneapolis, MN) per well for 24 hours. The next day, a nitrite standard was serially diluted from 100 μM to 1.6 μM in RPMI 1640. Afterwards, 50 μL of cell culture supernatant was transferred from each well into a new Falcon-96 well clear bottom plate. Nitrite was measured as surrogate for nitric oxide using Promega's Griess Detection Kit #G2930 (Madison, WI) which involves the addition of 50 μL of the provided sulfanilamide solution to each well of the transferred cell culture supernatant and standards, followed by a 10-minute incubation at room temperature. Next, 50 μL of the provided N-1-napthylethylenediamine dihydrochloride (NED) solution was added to the sulfanilamide reaction and incubated for 10 minutes at room temperature in the dark. Afterwards, air bubbles were removed using ethanol vapor and absorbance was measured using a Spectramax M2e plate reader with a wavelength set to 525 nm. Viability was assessed using WST-1 cell proliferation reagent from Roche (Basel, Switzerland). After media was removed for the Nitric Oxide suppression assay, 15 μL of WST-1 reagent was added to each well of cells. Plates were briefly mixed on an orbital shaker and the cells were incubated at 37° C. for 30-90 minutes. Absorbance was measured using a Spectramax M2e plate reader with wavelengths set to 440 nm and 700 nm.
For the ability of compounds to suppress the increase in nitric oxide release caused by interferon gamma, the absolute amount of nitrite that was produced in each well was extrapolated from the nitrite standards using a linear regression fit. All values were then normalized to the DMSO-interferon gamma treated wells and plotted as percent nitric oxide. IC50 values were calculated using Excel and/or GraphPad Prism (San Diego, CA).

[2] = system: Nrf2 / ARE-dependent luciferase in AREc32 reporter cell line; experiment: AREc32 luciferase reporter activation (Nrf2 induction); format: cell-based, human; conditions: for EC (2-fold): Homo sapiens, Arec32; for Relative Avg AREc32 EC2X Relative to RTA402 (fold): ratio to RTA402
Procedure: Effect on Ludferase Reporter Activation. Nrf2 is a transcription factor that binds to the antioxidant response element (ARE) sequence in the promoter regions of its target genes. AREc32 reporter cell line (derived from human breast carcinoma MCF7 cells) was obtained was from CXR Bioscience Limited (Dundee, UK) and cultured in DMEM (low glucose) supplemented with 10% FBS, 1% penicillin/streptomycin, and 0.8 mg/ml Geneticin (G418). This cell line is stably transfected with a luciferase reporter gene under the transcriptional control of eight copies of the rat GSTA2 ARE sequence (5′-GTGACAAAGCA-3′) (Wang et al., 2006). Expression of Firefly luciferase from this reporter plasmid is controlled by binding of Nrf2 to these ARE sequences. Measurement of ARE-dependent luciferase activity allows quantitative assessment of Nrf2 induction. AREc32 cell line has previously been used in studies characterizing different Nrf2 activators (Dinkova-Kostova & Wang, 2011; Roubalová et al., 2016; Roubalová et al, 2017; Wu et al, 2012).
The effect of several compounds disclosed herein on luciferase reporter activation was assessed in the AREc32 reporter cell line (see Table 10 and Table 11). This cell line is derived from human breast carcinoma MCF-7 cells and is stably transfected with a luciferase reporter gene under the transcriptional control of eight copies of the antioxidant response element from the rat Gsta2 gene, an Nrf2 target gene (Frilling et al., 1990). AREc32 cells were plated in black 96-well plates in 200 μL media at 20,000 cells per well. Twenty-four hours after plating, cells were treated with vehicle (DMSO) or test compounds at concentrations ranging from 0.03 to 1000 nM for nineteen hours. Media was removed and 100 μL of 1:1 mixture of the One-Glo Luciferase assay reagent and culture medium was added to each well. After incubation for 5 min at room temperature, the luminescence signal was measured on a PHERAstar plate reader. The EC2X value was determined using Excel and GraphPad Prism software. The fold increase in luminescence signal for cells treated with each concentration of compound relative to cells treated with vehicle was determined and a dose-response curve was generated. The dose-response curve was fit using nonlinear regression analysis and used to extrapolate the EC2X value. The EC2X value is defined as the concentration of test compound required to increase the luminescence signal 2-fold above levels in vehicle-treated samples.

[3] = RAW264.7, Table 2, RAW 264.7 cells, 2 h pretreatment, 20 ng/mL interferon gamma 24 h, read-out: Avg NO IC50 (nM) (Mean ± SD)
[4] = Table 2, concentration increasing luminescence 2-fold above vehicle, 19 h treatment, read-out: Avg AREc32 EC2X (nM) (Mean ± SD)
[5] = RAW264.7, Table 3, ursolic acid derivatives, read-out: Avg NO IC50 (nM) (Mean ± SD)
[6] = Table 3, ursolic acid derivatives, read-out: Avg ARE EC-2X (nM) (Mean ± SD)

C[C@@H]1[C@H]2[C@H]3C(=O)C=C4[C@@]5(C)C=C(C#N)C(=O)C(C)(C)[C@@H]5CC[C@@]4(C)[C@]3(C)CC[C@@]2(CN(C)C(=O)C(C)(F)F)CC[C@H]1C [Compound T38]
IC50 [1, 3]: 39.2 ± 4.2 nM | Avg NO IC50 Relative to RTA402 (fold) [1]: 9.52 ± 1.82 fold | EC (2-fold) [2, 4]: 34.5 ± 7.6 nM | Relative Avg AREc32 EC2X Relative to RTA402 (fold) ([2]; Table 2): 2.76 ± 0.32 fold

C[C@@H]1[C@H]2[C@H]3C(=O)C=C4[C@@]5(C)C=C(C#N)C(=O)C(C)(C)[C@@H]5CC[C@@]4(C)[C@]3(C)CC[C@@]2(c2nc(COC(C)(C)C)no2)CC[C@H]1C [Compound T9]
IC50 [1, 3]: 11.3 ± 2.4 nM | Avg NO IC50 Relative to RTA402 (fold) [1]: 5.37 ± 0.71 fold | EC (2-fold) [2, 4]: 19.3 ± 4.5 nM | Relative Avg AREc32 EC2X Relative to RTA402 (fold) ([2]; Table 2): 1.84 ± 0.20 fold

CNC(=O)N(C)C[C@]12CC[C@@H](C)[C@H](C)[C@H]1[C@H]1C(=O)C=C3[C@@]4(C)C=C(C#N)C(=O)C(C)(C)[C@@H]4CC[C@@]3(C)[C@]1(C)CC2 [Compound T36]
IC50 [1, 3]: 5.08 ± 1.51 nM | IC50 [1, 5]: 5.08 ± 1.51 nM | Avg NO IC50 Relative to RTA402 (fold) [1]: 1.25 ± 0.47 fold | EC (2-fold) [2, 4]: 5.21 ± 1.17 nM | EC (2-fold) [2, 6]: 5.21 ± 1.17 nM | Relative Avg AREc32 EC2X Relative to RTA402 (fold) ([2]; Table 2): 0.441 ± 0.075 fold

C[C@@H]1[C@H]2[C@H]3C(=O)C=C4[C@@]5(C)C=C(C#N)C(=O)C(C)(C)[C@@H]5CC[C@@]4(C)[C@]3(C)CC[C@@]2(CCC(=O)NC2CC2)CC[C@H]1C [Compound T81]
IC50 [1, 3]: 2.31 ± 0.55 nM | Avg NO IC50 Relative to RTA402 (fold) [1]: 0.92 ± 0.27 fold | EC (2-fold) [2, 4]: 3.1 ± 1.5 nM | Relative Avg AREc32 EC2X Relative to RTA402 (fold) ([2]; Table 2): 0.238 ± 0.072 fold

C[C@@H]1[C@H]2[C@H]3C(=O)C=C4[C@@]5(C)C=C(C#N)C(=O)C(C)(C)[C@@H]5CC[C@@]4(C)[C@]3(C)CC[C@@]2(CNC(=O)OC(C)(C)C)CC[C@H]1C [Compound T20]
IC50 [1, 3]: 12.9 ± 4.6 nM | IC50 [1, 5]: 12.9 ± 4.6 nM | Avg NO IC50 Relative to RTA402 (fold) [1]: 3.72 ± 0.60 fold | EC (2-fold) [2, 4]: 21.5 ± 4.6 nM | EC (2-fold) [2, 6]: 21.5 ± 4.6 nM | Relative Avg AREc32 EC2X Relative to RTA402 (fold) ([2]; Table 2): 1.83 ± 0.41 fold

Cc1nc([C@]23CC[C@@H](C)[C@H](C)[C@H]2[C@H]2C(=O)C=C4[C@@]5(C)C=C(C#N)C(=O)C(C)(C)[C@@H]5CC[C@@]4(C)[C@]2(C)CC3)no1 [Compound T82]
IC50 [1, 3]: 5.58 ± 0.32 nM | IC50 [1, 5]: 5.58 ± 0.32 nM | Avg NO IC50 Relative to RTA402 (fold) [1]: 3.69 ± 0.82 fold | EC (2-fold) [2, 4]: 10 ± 3 nM | EC (2-fold) [2, 6]: 10 ± 3 nM | Relative Avg AREc32 EC2X Relative to RTA402 (fold) ([2]; Table 2): 1.01 ± 0.11 fold

CCS(=O)(=O)NC[C@]12CC[C@@H](C)[C@H](C)[C@H]1[C@H]1C(=O)C=C3[C@@]4(C)C=C(C#N)C(=O)C(C)(C)[C@@H]4CC[C@@]3(C)[C@]1(C)CC2 [Compound T32]
IC50 [1, 3]: 5.34 ± 1.15 nM | Avg NO IC50 Relative to RTA402 (fold) [1]: 2.52 ± 1.11 fold | EC (2-fold) [2, 4]: 4.2 ± 1.3 nM | Relative Avg AREc32 EC2X Relative to RTA402 (fold) ([2]; Table 2): 0.399 ± 0.111 fold

C[C@@H]1[C@H]2[C@H]3C(=O)C=C4[C@@]5(C)C=C(C#N)C(=O)C(C)(C)[C@@H]5CC[C@@]4(C)[C@]3(C)CC[C@@]2(Cn2cncn2)CC[C@H]1C [Compound T47]
IC50 [1, 3]: 8.19 ± 2 nM | IC50 [1, 5]: 8.19 ± 2 nM | Avg NO IC50 Relative to RTA402 (fold) [1]: 2.70 ± 0.52 fold | EC (2-fold) [2, 4]: 7.08 ± 1.2 nM | EC (2-fold) [2, 6]: 7.1 ± 1.2 nM | Relative Avg AREc32 EC2X Relative to RTA402 (fold) ([2]; Table 2): 0.573 ± 0.139 fold

C[C@@H]1[C@H]2[C@H]3C(=O)C=C4[C@@]5(C)C=C(C#N)C(=O)C(C)(C)[C@@H]5CC[C@@]4(C)[C@]3(C)CC[C@@]2(Cn2ccnc2)CC[C@H]1C [Compound T51]
IC50 [1, 3]: 17.4 ± 2.5 nM | IC50 [1, 5]: 17.4 ± 2.5 nM | Avg NO IC50 Relative to RTA402 (fold) [1]: 5.79 ± 0.73 fold | EC (2-fold) [2, 4]: 15.3 ± 3.6 nM | EC (2-fold) [2, 6]: 15.3 ± 3.6 nM | Relative Avg AREc32 EC2X Relative to RTA402 (fold) ([2]; Table 2): 1.2 ± 0.1 fold

COC(=O)C[C@]12CC[C@@H](C)[C@H](C)[C@H]1[C@H]1C(=O)C=C3[C@@]4(C)C=C(C#N)C(=O)C(C)(C)[C@@H]4CC[C@@]3(C)[C@]1(C)CC2 [Compound T88]
IC50 [1, 3]: 12.9 ± 5.1 nM | Avg NO IC50 Relative to RTA402 (fold) [1]: 6.48 ± 0.96 fold | EC (2-fold) [2, 4]: 10.7 ± 3.2 nM | Relative Avg AREc32 EC2X Relative to RTA402 (fold) ([2]; Table 2): 1.03 ± 0.33 fold

C[C@@H]1[C@H]2[C@H]3C(=O)C=C4[C@@]5(C)C=C(C#N)C(=O)C(C)(C)[C@@H]5CC[C@@]4(C)[C@]3(C)CC[C@@]2(N2CCOC2=O)CC[C@H]1C [CC59, reference compound]
IC50 ([1]; RAW264.7, Table 3, oleanolic acid derivative analogs, read-out: Avg NO IC50): 2.2 nM | EC (2-fold) ([2]; Table 3, oleanolic acid derivative analogs, read-out: Avg ARE EC-2X): 23.6 nM

CC(=O)OCCNC[C@]12CC[C@@H](C)[C@H](C)[C@H]1[C@H]1C(=O)C=C3[C@@]4(C)C=C(C#N)C(=O)C(C)(C)[C@@H]4CC[C@@]3(C)[C@]1(C)CC2 [Compound T43]
IC50 [1, 3]: 15.9 ± 7 nM | Avg NO IC50 Relative to RTA402 (fold) [1]: 5.93 ± 3.56 fold | EC (2-fold) [2, 4]: 10.1 ± 1 nM | Relative Avg AREc32 EC2X Relative to RTA402 (fold) ([2]; Table 2): 0.8 ± 0.1 fold

C[C@@H]1[C@H]2[C@H]3C(=O)C=C4[C@@]5(C)C=C(C#N)C(=O)C(C)(C)[C@@H]5CC[C@@]4(C)[C@]3(C)CC[C@@]2(CNC(=O)C2CCC2)CC[C@H]1C [Compound T25]
IC50 [1, 3]: 5.11 ± 1.69 nM | Avg NO IC50 Relative to RTA402 (fold) [1]: 1.49 ± 0.35 fold | EC (2-fold) [2, 4]: 2.88 ± 0.13 nM | Relative Avg AREc32 EC2X Relative to RTA402 (fold) ([2]; Table 2): 0.259 ± 0.036 fold

From patent US20240140986A1, “SYNTHETIC URSOLIC ACID DERIVATIVES AND METHODS OF USE THEREOF” (REATA PHARMACEUTICALS, INC., priority 2021, published 2024)
